Assay results taken from paper doi:10.1101/2023.10.20.563248v1 (biorxiv, 2023).

Key:
Conditions in all cases: 1 µM; inhibitor
[1] = target: CDK3/CycC (Homo sapiens, UniProt Q00526)
[2] = target: CDK10 (Homo sapiens, UniProt Q15131)
[3] = target: LKB1/MO25a/STRADa (Homo sapiens, UniProt Q15831)
[4] = target: SRMS (Homo sapiens, UniProt Q9H3Y6)
[5] = target: CAMK4 (Homo sapiens, UniProt Q16566)
[6] = target: MAPKAPK5 (Homo sapiens, UniProt Q8IW41)
[7] = target: BLK (Homo sapiens, UniProt P51451)
[8] = target: PRKG2 (Homo sapiens, UniProt Q13237)
[9] = target: EPHA7 (Homo sapiens, UniProt Q15375)
[10] = target: LIMK2 (Homo sapiens, UniProt P53671)
[11] = target: FGFR3 (Homo sapiens, UniProt P22607)
[12] = target: MAP3K1 (Homo sapiens, UniProt Q13233)
[13] = target: MYLK (Homo sapiens, UniProt Q15746)
MYLK, sequence (Q15746 whole entry): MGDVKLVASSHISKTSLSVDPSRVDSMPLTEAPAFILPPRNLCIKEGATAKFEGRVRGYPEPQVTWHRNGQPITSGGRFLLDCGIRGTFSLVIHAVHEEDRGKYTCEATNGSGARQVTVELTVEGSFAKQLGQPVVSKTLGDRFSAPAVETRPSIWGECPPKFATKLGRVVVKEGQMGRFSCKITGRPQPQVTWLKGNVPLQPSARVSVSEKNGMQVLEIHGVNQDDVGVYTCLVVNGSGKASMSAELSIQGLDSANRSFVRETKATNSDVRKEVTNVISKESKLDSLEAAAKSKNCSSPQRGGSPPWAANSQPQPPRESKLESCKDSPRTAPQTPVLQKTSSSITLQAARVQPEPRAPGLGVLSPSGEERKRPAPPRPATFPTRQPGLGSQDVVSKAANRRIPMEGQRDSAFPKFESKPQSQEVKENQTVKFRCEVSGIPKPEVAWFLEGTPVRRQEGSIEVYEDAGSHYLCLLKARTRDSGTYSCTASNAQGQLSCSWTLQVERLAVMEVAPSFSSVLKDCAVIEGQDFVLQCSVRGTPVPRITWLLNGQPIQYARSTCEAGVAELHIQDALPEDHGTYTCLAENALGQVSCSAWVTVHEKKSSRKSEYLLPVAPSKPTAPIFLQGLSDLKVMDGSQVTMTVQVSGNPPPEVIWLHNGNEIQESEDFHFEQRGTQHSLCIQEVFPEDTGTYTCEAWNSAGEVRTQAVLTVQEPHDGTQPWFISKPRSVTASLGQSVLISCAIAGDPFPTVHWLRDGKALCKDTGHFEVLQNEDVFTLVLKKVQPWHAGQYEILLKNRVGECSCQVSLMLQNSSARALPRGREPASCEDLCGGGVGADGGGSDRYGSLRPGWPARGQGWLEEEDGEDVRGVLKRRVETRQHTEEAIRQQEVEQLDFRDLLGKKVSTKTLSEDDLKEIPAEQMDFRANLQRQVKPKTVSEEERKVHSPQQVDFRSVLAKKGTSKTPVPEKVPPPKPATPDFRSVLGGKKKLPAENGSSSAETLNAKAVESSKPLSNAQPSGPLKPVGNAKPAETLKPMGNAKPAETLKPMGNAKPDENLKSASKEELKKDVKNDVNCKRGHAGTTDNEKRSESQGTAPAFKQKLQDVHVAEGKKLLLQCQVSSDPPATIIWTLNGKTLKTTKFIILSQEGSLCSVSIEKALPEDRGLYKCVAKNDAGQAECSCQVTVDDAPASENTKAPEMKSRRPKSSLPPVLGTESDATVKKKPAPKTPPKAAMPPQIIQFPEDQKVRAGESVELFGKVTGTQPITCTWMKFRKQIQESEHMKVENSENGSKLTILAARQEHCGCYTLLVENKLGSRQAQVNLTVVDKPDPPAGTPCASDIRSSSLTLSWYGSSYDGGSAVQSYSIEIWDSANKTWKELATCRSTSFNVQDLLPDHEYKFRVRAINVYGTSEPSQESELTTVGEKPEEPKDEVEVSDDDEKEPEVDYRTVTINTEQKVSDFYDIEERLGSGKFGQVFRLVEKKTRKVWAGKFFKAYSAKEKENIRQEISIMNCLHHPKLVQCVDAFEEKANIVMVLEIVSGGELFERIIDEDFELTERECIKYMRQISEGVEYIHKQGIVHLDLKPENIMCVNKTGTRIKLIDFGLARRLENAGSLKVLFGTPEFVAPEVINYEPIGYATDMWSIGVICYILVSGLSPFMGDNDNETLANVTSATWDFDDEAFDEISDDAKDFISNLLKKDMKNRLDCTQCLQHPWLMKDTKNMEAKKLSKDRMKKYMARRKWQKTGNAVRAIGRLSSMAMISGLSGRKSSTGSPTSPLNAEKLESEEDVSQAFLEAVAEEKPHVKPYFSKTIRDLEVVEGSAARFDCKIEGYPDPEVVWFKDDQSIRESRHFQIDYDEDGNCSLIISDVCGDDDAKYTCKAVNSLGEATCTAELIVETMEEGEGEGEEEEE

[14] = target: HRI (Homo sapiens, UniProt Q9BQI3)
[15] = target: NEK11 (Homo sapiens, UniProt Q8NG66)
[16] = target: NEK6 (Homo sapiens, UniProt Q9HC98)
NEK6, sequence (Q9HC98 whole entry): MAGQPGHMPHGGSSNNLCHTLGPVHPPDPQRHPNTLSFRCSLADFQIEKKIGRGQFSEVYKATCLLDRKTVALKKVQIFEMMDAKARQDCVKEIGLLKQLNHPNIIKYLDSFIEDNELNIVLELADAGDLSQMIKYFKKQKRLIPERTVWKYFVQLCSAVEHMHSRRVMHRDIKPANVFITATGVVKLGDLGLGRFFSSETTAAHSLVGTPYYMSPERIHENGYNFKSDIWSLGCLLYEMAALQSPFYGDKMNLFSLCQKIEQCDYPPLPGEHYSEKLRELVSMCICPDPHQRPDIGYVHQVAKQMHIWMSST

[17] = target: RPS6KA6 (Homo sapiens, UniProt Q9UK32)
RPS6KA6, sequence (Q9UK32 whole entry): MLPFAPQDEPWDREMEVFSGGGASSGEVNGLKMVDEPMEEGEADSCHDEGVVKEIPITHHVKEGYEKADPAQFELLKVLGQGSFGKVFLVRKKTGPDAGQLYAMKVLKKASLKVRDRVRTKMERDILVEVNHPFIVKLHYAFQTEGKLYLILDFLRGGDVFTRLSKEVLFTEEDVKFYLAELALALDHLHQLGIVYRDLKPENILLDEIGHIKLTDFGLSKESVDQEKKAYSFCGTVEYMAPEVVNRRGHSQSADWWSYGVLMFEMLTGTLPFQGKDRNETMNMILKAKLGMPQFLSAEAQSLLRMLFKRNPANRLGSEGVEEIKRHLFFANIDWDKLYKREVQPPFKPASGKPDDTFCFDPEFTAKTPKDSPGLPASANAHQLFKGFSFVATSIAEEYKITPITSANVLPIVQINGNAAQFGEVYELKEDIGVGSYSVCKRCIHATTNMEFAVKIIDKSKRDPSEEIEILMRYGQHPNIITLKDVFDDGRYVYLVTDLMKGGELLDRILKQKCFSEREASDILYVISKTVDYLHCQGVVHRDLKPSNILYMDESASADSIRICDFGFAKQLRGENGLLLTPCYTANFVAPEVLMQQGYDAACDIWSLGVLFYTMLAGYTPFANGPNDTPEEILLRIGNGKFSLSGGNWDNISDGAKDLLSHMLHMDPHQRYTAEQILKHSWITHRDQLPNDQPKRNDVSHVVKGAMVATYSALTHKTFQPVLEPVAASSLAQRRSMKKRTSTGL

[18] = target: CDK6/CycD3 (Homo sapiens, UniProt Q00534)
[19] = target: SRPK2 (Homo sapiens, UniProt P78362)
[20] = target: CDK3 (Homo sapiens, UniProt Q00526)
[21] = target: STK23 (Homo sapiens, UniProt Q9UPE1)
[22] = target: PKCt (Homo sapiens, UniProt Q04759)
[23] = target: FRK (Homo sapiens, UniProt P42685)
[24] = target: MAP3K9 (Homo sapiens, UniProt P80192)
[25] = target: IKKa (Homo sapiens, UniProt O15111)
IKKa, sequence (O15111 whole entry): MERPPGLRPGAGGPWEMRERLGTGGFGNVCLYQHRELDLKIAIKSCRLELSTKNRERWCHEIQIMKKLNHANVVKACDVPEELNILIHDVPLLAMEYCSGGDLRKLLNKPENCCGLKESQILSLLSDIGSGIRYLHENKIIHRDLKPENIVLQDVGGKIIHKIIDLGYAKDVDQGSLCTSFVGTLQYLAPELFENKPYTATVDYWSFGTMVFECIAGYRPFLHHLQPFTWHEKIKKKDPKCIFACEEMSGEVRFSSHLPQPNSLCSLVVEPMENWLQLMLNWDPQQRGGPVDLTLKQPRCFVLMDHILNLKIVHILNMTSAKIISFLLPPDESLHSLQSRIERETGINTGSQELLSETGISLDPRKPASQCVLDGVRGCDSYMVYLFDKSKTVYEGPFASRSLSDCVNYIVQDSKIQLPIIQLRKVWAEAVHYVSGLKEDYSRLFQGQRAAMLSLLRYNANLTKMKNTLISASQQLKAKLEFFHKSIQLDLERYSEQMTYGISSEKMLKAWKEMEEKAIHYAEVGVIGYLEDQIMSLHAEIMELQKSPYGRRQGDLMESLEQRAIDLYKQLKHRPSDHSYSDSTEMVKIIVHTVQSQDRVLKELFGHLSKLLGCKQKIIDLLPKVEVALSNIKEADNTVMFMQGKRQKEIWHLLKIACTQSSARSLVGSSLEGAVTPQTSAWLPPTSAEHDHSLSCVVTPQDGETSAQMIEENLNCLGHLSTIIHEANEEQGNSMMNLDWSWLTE

[26] = target: RPS6KA5 (Homo sapiens, UniProt O75582)
[27] = target: MET (Homo sapiens, UniProt P08581)
[28] = target: ITK (Homo sapiens, UniProt Q08881)
ITK, sequence (Q08881 whole entry): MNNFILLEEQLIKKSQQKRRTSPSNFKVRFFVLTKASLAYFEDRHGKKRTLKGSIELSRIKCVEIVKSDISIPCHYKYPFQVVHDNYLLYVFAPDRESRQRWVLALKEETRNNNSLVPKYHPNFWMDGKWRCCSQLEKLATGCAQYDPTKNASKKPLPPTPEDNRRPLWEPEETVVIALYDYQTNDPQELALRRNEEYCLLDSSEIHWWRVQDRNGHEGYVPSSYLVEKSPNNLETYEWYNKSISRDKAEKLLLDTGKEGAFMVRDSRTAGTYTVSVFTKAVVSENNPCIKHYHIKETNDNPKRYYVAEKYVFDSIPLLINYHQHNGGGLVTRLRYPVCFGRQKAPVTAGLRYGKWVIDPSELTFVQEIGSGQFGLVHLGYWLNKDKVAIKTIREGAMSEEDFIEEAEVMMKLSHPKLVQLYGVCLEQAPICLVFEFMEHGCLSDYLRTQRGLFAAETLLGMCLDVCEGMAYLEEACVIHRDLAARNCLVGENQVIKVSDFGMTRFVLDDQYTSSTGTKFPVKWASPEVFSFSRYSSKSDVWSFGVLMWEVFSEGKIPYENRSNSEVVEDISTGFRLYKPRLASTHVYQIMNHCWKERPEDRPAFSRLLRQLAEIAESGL

[29] = target: CLK1 (Homo sapiens, UniProt P49759)
[30] = target: BMPR1A (Homo sapiens, UniProt P36894)
[31] = target: TSSK1 (Homo sapiens, UniProt Q9BXA7)

CAMK4, sequence (Q16566 whole entry): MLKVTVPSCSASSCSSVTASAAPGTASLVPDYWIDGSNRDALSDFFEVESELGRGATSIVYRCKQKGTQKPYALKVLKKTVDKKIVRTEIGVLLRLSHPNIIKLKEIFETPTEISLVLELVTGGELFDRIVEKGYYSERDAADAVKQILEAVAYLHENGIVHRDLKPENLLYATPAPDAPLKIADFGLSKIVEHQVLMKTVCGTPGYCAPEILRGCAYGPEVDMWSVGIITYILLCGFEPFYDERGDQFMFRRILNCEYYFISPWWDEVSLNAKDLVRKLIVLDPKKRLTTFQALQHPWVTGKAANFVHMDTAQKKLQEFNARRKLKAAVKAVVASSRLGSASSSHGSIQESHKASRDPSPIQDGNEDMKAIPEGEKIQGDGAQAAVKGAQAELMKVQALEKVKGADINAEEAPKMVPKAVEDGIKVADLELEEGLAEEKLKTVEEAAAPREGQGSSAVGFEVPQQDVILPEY

How did the “21c Remaining activity, percent of control [%]” value [1] turn out when `O=C1NCCCCCNc2nc(c3ccccc3n2)Nc2cc1[nH]n2` [21c, (Z)-3^1H-2,5,11-triaza-1(4,2)-quinazolina-3(3,5)-pyrazolacycloundecaphan-4-one] was run?
Its value is 87.0%.

What about the “21c Remaining activity, percent of control [%]” value [2] of the same molecule?
The value was 85.1%.

What about the “21c Remaining activity, percent of control [%]” value [3] of the same molecule?
The value was 105.1%.

What about the “21c Remaining activity, percent of control [%]” value [4] of the same molecule?
The value was 81.5%.

And the “21c Remaining activity, percent of control [%]” value [5]?
The value was 98.0%.

What about the “21c Remaining activity, percent of control [%]” value [6] of the same molecule?
The value was 110.4%.

And the “21c Remaining activity, percent of control [%]” value [7]?
The value was 98.6%.

What about the “21c Remaining activity, percent of control [%]” value [8] of the same molecule?
The value was 93.5%.

What about the “21c Remaining activity, percent of control [%]” value [9] of the same molecule?
Its value is 103.7%.

What about the “21c Remaining activity, percent of control [%]” value [10] of the same molecule?
Its value is 38.2%.

What about the “21c Remaining activity, percent of control [%]” value [11] of the same molecule?
Its value is 99.8%.

What about the “21c Remaining activity, percent of control [%]” value [12] of the same molecule?
The value was 100.1%.

What about the “21c Remaining activity, percent of control [%]” value [13] of the same molecule?
The value was 68.9%.

What about the “21c Remaining activity, percent of control [%]” value [14] of the same molecule?
The value was 98.2%.

And the “21c Remaining activity, percent of control [%]” value [15]?
Its value is 93.3%.

And the “21c Remaining activity, percent of control [%]” value [16]?
The value was 89.5%.

What about the “21c Remaining activity, percent of control [%]” value [17] of the same molecule?
The value was 73.5%.

What about the “21c Remaining activity, percent of control [%]” value [18] of the same molecule?
Its value is 85.3%.

And the “21c Remaining activity, percent of control [%]” value [19]?
The value was 97.0%.

And the “21c Remaining activity, percent of control [%]” value [20]?
Its value is 95.9%.

And the “21c Remaining activity, percent of control [%]” value [21]?
The value was 80.7%.

And the “21c Remaining activity, percent of control [%]” value [22]?
The value was 42.6%.

And the “21c Remaining activity, percent of control [%]” value [23]?
The value was 104.0%.

What about the “21c Remaining activity, percent of control [%]” value [24] of the same molecule?
Its value is 95.7%.

What about the “21c Remaining activity, percent of control [%]” value [25] of the same molecule?
Its value is 80.7%.

What about the “21c Remaining activity, percent of control [%]” value [26] of the same molecule?
Its value is 108.9%.

What about the “21c Remaining activity, percent of control [%]” value [27] of the same molecule?
The value was 107.2%.

And the “21c Remaining activity, percent of control [%]” value [28]?
Its value is 99.7%.

What about the “21c Remaining activity, percent of control [%]” value [29] of the same molecule?
Its value is 79.0%.

What about the “21c Remaining activity, percent of control [%]” value [30] of the same molecule?
The value was 108.3%.

What about the “21c Remaining activity, percent of control [%]” value [31] of the same molecule?
Its value is 95.8%.
